Test results published in patent publication US20080280866A1, “Method of Treating or Sepsis” (priority 2004, published 2008).
“Also recorded” adds a separate entry of the source. Like-named read-outs stand apart in the source and are kept apart here.

Columns and labels:
SOC channels = details: HL-60 cells, values determined by Harper; cited from earlier work
[1] = tested on: voltage-dependent L-type calcium channels; details: GH4C1 cells, values determined by Harper; cited from earlier work
rat T/HS = assay: Rat T/HS, post-shock treatment: lung MPO and Evans Blue dye leak; assay type: in vivo; details: IP after return of 10% of shed blood, estimated plasma level 30 μM; 3 hours after reperfusion; FIG. 1
Procedure: Male rats underwent standard T/HS. 4-[4-(4-Chloro-phenyl)-thiazol-2-ylamino]-phenol or N-propargyl-nitrendipine (estimated plasma level 30 μM for each) or vehicle were administered IP after the return of 10% of total shed blood to the animal. Different groups of animals (n=6/group) were sacrificed 3 hours after reperfusion for bronchoalveolar lavage and Evan's Blue dye leak assay, or to harvest the lungs for MPO assays (FIG. 1).
N=6 animals per condition, *p<0.01 for inter-group comparisons.

PMN = assay: Rat T/HS, post-shock treatment: PMN CD11b and respiratory burst by flow cytometry; assay type: in vivo; details: IP post-treatment, whole blood 3 hrs post reperfusion; for PMN CD11b expression: FIG. 2; for PMN priming for respiratory burst initiated by PMA: FIG. 3
Procedure: Male rats underwent T/HS with or without 4-[4-(4-chloro-phenyl)-thiazol-2-ylamino]-phenol or N-propargyl-nitrendipine administered IP in post-treatment as above. Small (200 μL) whole blood samples removed prior to shock and 3 hrs post reperfusion were assayed for PMN CD11b (FIG. 2) and respiratory burst (FIG. 3) by flow cytometry. […] Left histogram, preshock; Right histogram, 3 h post-shock; Center (dark) histogram, 3 h post-shock PMN from animal treated with the indicated drug during resuscitation. Representative flow histograms, n=3-4 per condition. P<0.01, ANOVA/Tukey's test for all inter-group comparisons. […] Representative flow histograms are arranged as in FIG. 2, n=3-4 per condition. P<0.01 by ANOVA/Tukey's test for all inter-group comparisons.

p38 MAP kinase = assay: Rat T/HS, post-shock treatment: Western blot of PMN phosphorylated p38 MAP kinase; assay type: in vivo; details: IP post-treatment; PMN lysates 3 hours after T/HS; FIG. 4
Procedure: The phosphorylation of p38-mitogen associated protein kinase [“p38 MAP kinase”] in the presence of inflammatory stimuli is a key cellular mechanism involved in irreversible neutrophil activation and post-shock organ injury. Male rats underwent T/HS with or without 4-[4-(4-chloro-phenyl)-thiazol-2-ylamino]-phenol or N-propargyl-nitrendipine administered IP in post-treatment as above. At the end of 3 hours post reperfusion, animals were sacrificed by exsanguination. PMN were isolated. Whole cell lysates were probed using specific antibodies for phosphorylated p38 MAP kinase. SOC inhibition via either strategy led to diminished activation. Lysates of rat PMN were sampled 3 hours after T/HS. Animals were treated with 4-[4-(4-chloro-phenyl)-thiazol-2-ylamino]-phenol or vehicle (DMSO) at the time of resuscitation. Positive controls (+) were rat PMN activated in vitro with fMLP. […] Thus SIP/SOC inhibition diminishes PMN p38 MAP kinase activation by T/HS.

[2] = assay type: in vivo
Procedure: In all the above experiments, rats undergoing T/HS were treated with SKI-2 or N-propargyl-nitrendipine given as an IP bolus just after the BP nadir. At this point, MAP has risen only from 30-40 to approximately 50 mmHg.

[3] = tested on: rat traumatic, hemorrhagic shock model; assay: Rat traumatic, hemorrhagic shock model, treatment prior to shock
Procedure: A rat traumatic, hemorrhagic shock model was used (32). […] Animals were then underwent T/HS, were resuscitated with shed blood and sacrificed by exsanguination 3 hours after resuscitation. We assayed lung injury as % Evans Blue dye leak, which provides a measure of the leakiness of lung capillaries. PMN activation was assessed as CD11b expression by flow cytometry (Table 1).

PMN SOC = details: cited from earlier work
[4] = IP bolus just after the BP nadir

Q: What does the source list for `C=CCN1C(C)=C(C(=O)OC)C(c2cccc([N+](=O)[O-])c2)C(C(=O)OCC)=C1C` (stereo not shown) [Compound 34]?
A: IC50 (SOC channels): 6.8 ± 1.8 µM; IC50 [1]: 3.8 ± 1.8 µM

Q: Which “Capillary-alveolar leakage (Evans Blue dye leak)” value (rat T/HS) does the source give for `C#CCN1C(C)=C(C(=O)OC)C(c2cccc([N+](=O)[O-])c2)C(C(=O)OCC)=C1C` (stereo not shown) [Compound 35, N-propargyl-nitrendipine] here?
A: prevented PMN accumulation and subsequent capillary-alveolar leakage; also recorded: yielded the same effects

Q: And the “Pulmonary PMN infiltration/accumulation (MPO assay)” value (rat T/HS)?
A: prevented PMN accumulation; also recorded: yielded the same effects

Q: And the “PMN CD11b expression” value (PMN)?
A: decreased CD11b expression almost to the level seen prior to shock

Q: What about the “PMN priming for respiratory burst initiated by PMA” value (PMN) of the same compound?
A: decreased PMN priming for respiratory burst initiated by PMA (phorbol 12-myristate 13-acetate) almost to the levels seen prior to shock

Q: What about the “PMN p38 MAP kinase phosphorylation/activation” value (p38 MAP kinase) of the same compound?
A: Attenuation of p38 MAP Kinase phosphorylation and activation was also seen

Q: What about the Episodes of hypotension [2, 4] of the same compound?
A: No episodes of hypotension were seen

Q: What about the “Survival of the acute shock phase” value [2, 4] of the same compound?
A: all animals survived the acute shock phase

Q: What about the IC50 (SOC channels) of the same compound?
A: 1.7 ± 1.3 µM

Q: And the IC50 [1]?
A: 2.1 ± 0.2 µM

Q: And the “Attenuation of lung injury” value ([3]; pre-treatment IP, target concentration 30 μm)?
A: Identical attenuation of lung injury as in Example 1

Q: And the “Lung PMN infiltration by myeloperoxidase (MPO) assay” value ([3]; pre-treatment IP, data not shown)?
A: diminished lung PMN infiltration

Q: For `[Gd+3]` [gadolinium (Gd3+), gadolinium], which “Concentration inhibiting PMN SOC” value (PMN SOC) is on record?
A: low-mid nanomolar concentrations

Q: What does the source list for `CCOC(=O)C1=C(C)N(C)C(C)=C(C(=O)OC)C1c1cccc([N+](=O)[O-])c1` (stereo not shown) [Compound 32]?
A: IC50 (SOC channels): 2.6 ± 1.1 µM; IC50 [1]: 1.3 ± 0.3 µM

Q: Which IC50 (SOC channels) does the source give for `COC(=O)C1=C(C)N(C)C(C)=C(C(=O)OC)C1c1cccc([N+](=O)[O-])c1` [Compound 30] here?
A: 2.8 ± 0.03 µM

Q: What about the IC50 [1] of the same compound?
A: 2 µM

Q: Which results are given for `CCOC(=O)C1=C(C)N(CC)C(C)=C(C(=O)OC)C1c1cccc([N+](=O)[O-])c1` (stereo not shown) [Compound 33]?
A: IC50 (SOC channels): 6 µM; IC50 [1]: 2.3 ± 0.4 µM

Q: For `Oc1ccc(Nc2nc(-c3ccc(Cl)cc3)cs2)cc1` [SKI-2, 4-[4-(4-Chloro-phenyl)-thiazol-2-ylamino]-phenol], which “Capillary-alveolar leakage (Evans Blue dye leak)” value (rat T/HS) is on record?
A: prevented PMN accumulation and subsequent capillary-alveolar leakage; also recorded: inhibits PMN mediated lung injury

Q: What about the “Pulmonary PMN infiltration/accumulation (MPO assay)” value (rat T/HS) of the same compound?
A: prevented PMN accumulation; also recorded: inhibits PMN mediated lung injury

Q: And the “PMN CD11b expression” value (PMN)?
A: decreased CD11b expression almost to the level seen prior to shock

Q: And the “PMN priming for respiratory burst initiated by PMA” value (PMN)?
A: decreased PMN priming for respiratory burst initiated by PMA (phorbol 12-myristate 13-acetate) almost to the levels seen prior to shock

Q: And the “PMN p38 MAP kinase phosphorylation/activation” value (p38 MAP kinase)?
A: attenuation of MAPK activation

Q: And the Episodes of hypotension [2, 4]?
A: No episodes of hypotension were seen

Q: And the “Survival of the acute shock phase” value ([2]; rat, in vivo, ip)?
A: all animals survived the acute shock phase

Q: What about the “CD11b (MFI)” value ([3]; PMN activation by flow cytometry, IP at laparotomy prior to shock, estimated plasma level 30 μM, 3 hours after resuscitation) of the same compound?
A: 225 ± 18 MFI

Q: What about the “Evans Blue (%)” value ([3]; lung injury as % Evans Blue dye leak, IP prior to shock, estimated plasma level 30 μM, 3 hours after resuscitation) of the same compound?
A: 3.8 ± 1.7 %

Q: What about the Hemodynamic effects ([3]; pre-treatment IP) of the same compound?
A: No unexpected hemodynamic effects were noted

Q: And the Phlebotomy volumes ([3]; treatment vs placebo groups, pre-treatment IP)?
A: identical in the treatment and placebo groups
